Legend:
[1] = system: A-431; test: Induction of cell cycle arrest in human A-431 cells assessed as accumulation of cells at G2 phase at 0.1 uM incubated for 48 hrs by PI staining based flow cytometry (reference value: 21.7%); assay type: toxicity; conditions: a-431, 48 h
[2] = system: HCC827; test: Induction of cell cycle arrest in human HCC827 cells assessed as accumulation of cells at G2 phase at 1 uM incubated for 48 hrs by PI staining based flow cytometry (reference value: 25.9%); assay type: functional
[3] = system: NCI-H1975; test: Induction of cell cycle arrest in human NCI-H1975 cells assessed as accumulation of cells at G1 phase at 1 uM incubated for 48 hrs by PI staining based flow cytometry (reference value: 50.1%); assay type: functional
[4] = system: HCC827; test: Induction of apoptosis in human HCC827 cells assessed as early apoptotic cells at 10 uM incubated for 48 hrs by AnnexinV-FITC/PI staining based flow cytometry (reference value: 0.24%); assay type: functional
[5] = system: A549; test: Induction of apoptosis in human A549 cells assessed as late apoptotic cells at 0.1 uM incubated for 48 hrs by AnnexinV-FITC/PI staining based flow cytometry (reference value: 0.51%); assay type: toxicity, cell-based; conditions: a549, 48 h
[6] = system: A549; test: Induction of cell cycle arrest in human A549 cells assessed as accumulation of cells at S phase at 0.1 uM incubated for 48 hrs by PI staining based flow cytometry (reference value: 29.4%); assay type: toxicity; conditions: a549, 48 h
[7] = system: HCC827; test: Induction of cell cycle arrest in human HCC827 cells assessed as accumulation of cells at S phase at 10 uM incubated for 48 hrs by PI staining based flow cytometry (reference value: 15.2%); assay type: functional
[8] = system: A549; test: Induction of apoptosis in human A549 cells assessed as late apoptotic cells at 10 uM incubated for 48 hrs by AnnexinV-FITC/PI staining based flow cytometry (reference value: 0.51%); assay type: toxicity, cell-based; conditions: a549, 48 h
[9] = system: A-431; test: Induction of apoptosis in human A-431 cells assessed as early apoptotic cells at 0.1 uM incubated for 48 hrs by AnnexinV-FITC/PI staining based flow cytometry (reference value: 1.37%); assay type: toxicity, cell-based; conditions: a-431, 48 h
[10] = system: NCI-H1975; test: Induction of apoptosis in human NCI-H1975 cells assessed as late apoptotic cells at 10 uM incubated for 48 hrs by AnnexinV-FITC/PI staining based flow cytometry (reference value: 0.79%); assay type: functional
[11] = system: A-431; test: Induction of cell cycle arrest in human A-431 cells assessed as accumulation of cells at G1 phase at 10 uM incubated for 48 hrs by PI staining based flow cytometry (reference value: 46.9%); assay type: toxicity; conditions: a-431, 48 h
[12] = system: A-431; test: Induction of apoptosis in human A-431 cells assessed as late apoptotic cells at 10 uM incubated for 48 hrs by AnnexinV-FITC/PI staining based flow cytometry (reference value: 1.86%); assay type: toxicity, cell-based; conditions: a-431, 48 h
[13] = system: HCC827; test: Induction of apoptosis in human HCC827 cells assessed as early apoptotic cells at 1 uM incubated for 48 hrs by AnnexinV-FITC/PI staining based flow cytometry (reference value: 0.24%); assay type: functional
[14] = system: A-431; test: Induction of cell cycle arrest in human A-431 cells assessed as accumulation of cells at S phase at 10 uM incubated for 48 hrs by PI staining based flow cytometry (reference value: 30.5%); assay type: toxicity; conditions: a-431, 48 h
[15] = system: A-431; test: Induction of cell cycle arrest in human A-431 cells assessed as accumulation of cells at G2 phase at 10 uM incubated for 48 hrs by PI staining based flow cytometry (reference value: 21.7%); assay type: toxicity; conditions: a-431, 48 h
[16] = system: A549; test: Induction of cell cycle arrest in human A549 cells assessed as accumulation of cells at S phase at 1 uM incubated for 48 hrs by PI staining based flow cytometry (reference value: 29.4%); assay type: toxicity; conditions: a549, 48 h
[17] = system: HCC827; test: Induction of apoptosis in human HCC827 cells assessed as early apoptotic cells at 0.1 uM incubated for 48 hrs by AnnexinV-FITC/PI staining based flow cytometry (reference value: 0.24%); assay type: functional
[18] = system: A-431; test: Induction of apoptosis in human A-431 cells assessed as late apoptotic cells at 1 uM incubated for 48 hrs by AnnexinV-FITC/PI staining based flow cytometry (reference value: 1.86%); assay type: toxicity, cell-based; conditions: a-431, 48 h
[19] = system: NCI-H1975; test: Induction of cell cycle arrest in human NCI-H1975 cells assessed as accumulation of cells at G1 phase at 0.1 uM incubated for 48 hrs by PI staining based flow cytometry (reference value: 50.1%); assay type: functional
[20] = system: NCI-H1975; test: Induction of cell cycle arrest in human NCI-H1975 cells assessed as accumulation of cells at S phase at 1 uM incubated for 48 hrs by PI staining based flow cytometry (reference value: 29.8%); assay type: functional
[21] = system: A-431; test: Induction of apoptosis in human A-431 cells assessed as late apoptotic cells at 0.1 uM incubated for 48 hrs by AnnexinV-FITC/PI staining based flow cytometry (reference value: 1.86%); assay type: toxicity, cell-based; conditions: a-431, 48 h
[22] = Intrinsic clearance in human liver microsomes at 1 uM measured for 60 mins by LC-MS analysis; assay type: ADME, Microsome; conditions: read-out: CLH
[23] = system: A-431; test: Induction of cell cycle arrest in human A-431 cells assessed as accumulation of cells at S phase at 1 uM incubated for 48 hrs by PI staining based flow cytometry (reference value: 30.5%); assay type: toxicity; conditions: a-431, 48 h
[24] = system: HCC827; test: Induction of cell cycle arrest in human HCC827 cells assessed as accumulation of cells at G1 phase at 0.1 uM incubated for 48 hrs by PI staining based flow cytometry (reference value: 65.2%); assay type: functional
[25] = system: A549; test: Induction of apoptosis in human A549 cells assessed as early apoptotic cells at 0.1 uM incubated for 48 hrs by AnnexinV-FITC/PI staining based flow cytometry (reference value: 3.89%); assay type: toxicity, cell-based; conditions: a549, 48 h
[26] = system: NCI-H1975; test: Induction of cell cycle arrest in human NCI-H1975 cells assessed as accumulation of cells at G2 phase at 0.1 uM incubated for 48 hrs by PI staining based flow cytometry (reference value: 19.3%); assay type: functional
[27] = system: HCC827; test: Induction of cell cycle arrest in human HCC827 cells assessed as accumulation of cells at G1 phase at 10 uM incubated for 48 hrs by PI staining based flow cytometry (reference value: 65.2%); assay type: functional
[28] = system: A549; test: Induction of cell cycle arrest in human A549 cells assessed as accumulation of cells at G2 phase at 0.1 uM incubated for 48 hrs by PI staining based flow cytometry (reference value: 18.1%); assay type: toxicity; conditions: a549, 48 h
[29] = system: A549; test: Induction of cell cycle arrest in human A549 cells assessed as accumulation of cells at G1 phase at 10 uM incubated for 48 hrs by PI staining based flow cytometry (reference value: 52.4%); assay type: toxicity; conditions: a549, 48 h
[30] = system: A-431; test: Induction of apoptosis in human A-431 cells assessed as early apoptotic cells at 1 uM incubated for 48 hrs by AnnexinV-FITC/PI staining based flow cytometry (reference value: 1.37%); assay type: toxicity, cell-based; conditions: a-431, 48 h
[31] = system: NCI-H1975; test: Induction of apoptosis in human NCI-H1975 cells assessed as early apoptotic cells at 0.1 uM incubated for 48 hrs by AnnexinV-FITC/PI staining based flow cytometry (reference value: 0.61%); assay type: functional
[32] = system: NCI-H1975; test: Induction of apoptosis in human NCI-H1975 cells assessed as early apoptotic cells at 1 uM incubated for 48 hrs by AnnexinV-FITC/PI staining based flow cytometry (reference value: 0.61%); assay type: functional
[33] = system: A-431; test: Induction of cell cycle arrest in human A-431 cells assessed as accumulation of cells at G1 phase at 0.1 uM incubated for 48 hrs by PI staining based flow cytometry (reference value: 46.9%); assay type: toxicity; conditions: a-431, 48 h

| SMILES | Activity [1] [%] | Activity [2] [%] | Activity [3] [%] | Activity [4] [%] | Activity [5] [%] | Activity [6] [%] | Activity [7] [%] | Activity [8] [%] | Activity [9] [%] | Activity [10] [%] | Activity [11] [%] | Activity [12] [%] | Activity [13] [%] | Activity [14] [%] | Activity [15] [%] | Activity [16] [%] | Activity [17] [%] | Activity [18] [%] | Activity [19] [%] | Activity [20] [%] | also measured |
| --- | --- | --- | --- | --- | --- | --- | --- | --- | --- | --- | --- | --- | --- | --- | --- | --- | --- | --- | --- | --- | --- |
| C=CC(=O)Nc1cc(Nc2nccc(-c3cn(C)c4ccccc34)n2)c(OC)cc1N(C)CCN(C)C [OSIMERTINIB] | 19.9 | 10.9 | 71.5 | 20.4 | 0.88 | 30.9 | 8.52 | 0.47 | 4.12 | 46.3 | 62.5 | 19.4 | 17.2 | 23.9 | 13.1 | 29.1 | 15.2 | 6.74 | 64.3 | 18.9 | Activity [21]: 4.04%; CLint scaled at 1 µM [22]: 21.4 mL/min/kg; Activity [23]: 28.1%; Activity [24]: 72.9%; Activity [25]: 4.13%; Activity [26]: 20.2%; Activity [27]: 79.5%; Activity [28]: 15.1%; Activity [29]: 74.6%; Activity [30]: 5.72%; Activity [31]: 7.15%; Activity [32]: 17.5%; Activity [33]: 49.8% |
| C=CC(=O)Nc1cccc(Nc2nc(Nc3ccc(N4CCN(C)CC4)cc3)nc3ccc(F)cc23)c1 | 17.4 | 12.2 | 72.2 | 28.4 | 0.8 | 25.9 | 7.33 | 0.2 | 2.46 | 4.3 | 64.5 | 3.43 | 22.7 | 20.4 | 10.7 | 26.4 | 10.1 | 2.9 | 67.1 | 16.4 | Activity [21]: 2.57%; CLint scaled at 1 µM [22]: 12.8 mL/min/kg; Activity [23]: 27.6%; Activity [24]: 74%; Activity [25]: 4.3%; Activity [26]: 15.5%; Activity [27]: 81.1%; Activity [28]: 16.5%; Activity [29]: 63.8%; Activity [30]: 3.58%; Activity [31]: 7.05%; Activity [32]: 23%; Activity [33]: 52.6% |
